Results as given in patent publication US4866038A, “Method of stimulating integumental melanocytes by topical application of analogs of alpha-msh” (University Patents, Inc., priority 1988, dated 1989).
Non-standard residues stand in square brackets, D forms with d. Residues, ends and D or L forms follow the SMILES beside them. *: point of attachment. Phe(4-NO2) = N[C@@H](Cc1ccc([N+](=O)[O-])cc1)C(=O)O; Nle = CCCC[C@H](N)C(=O)O; For = O=C*

system: lizard (Anolis caroliniensis); format: cell-based; conditions: not given
Description: (§1) Biological effect on in vivo and in vitro melanosome dispersion was examined using the frog (Rana pipiens) and the lizard (Anolis caroliniensis). [See Hadley et al., Science 213:1025-1027(1981)]; similar examinations were conducted with respect to the duration of its ability to stimulate melanosome dispersion in vitro using the skin bioassay as described in Shimume, Endrochrinology, 54:553-560(1954). The in vitro results are depicted in Table I.

Going from `CCCC[C@H](NC(C)=O)C(=O)N[C@@H](CCC(=O)O)C(=O)N[C@@H](Cc1c[nH]cn1)C(=O)N[C@H](Cc1ccccc1)C(=O)N[C@@H](CCCNC(=N)N)C(=O)N[C@@H](Cc1c[nH]c2ccccc12)C(N)=O` [Ac--[Nle^4 --D-Phe^7 --alpha-MSH4-9 --NH2] (Ac-[Nle]EH[dF]RW-NH2) to `CCCC[C@H](NC(C)=O)C(=O)N[C@@H](CCC(=O)O)C(=O)N[C@@H](Cc1c[nH]cn1)C(=O)N[C@H](Cc1ccc(O)cc1)C(=O)N[C@@H](CCCNC(=N)N)C(=O)N[C@@H](Cc1c[nH]c2ccccc12)C(=O)NCC(=O)N[C@@H](CCCCN)C(N)=O` [Ac--[Nle^4 --D-Tyr^7]--alpha-MSH4-11 --NH2] (Ac-[Nle]EH[dY]RWGK-NH2), the “Relative Potency Lizard” value falls from 7.14 to 1.0.

With `CCCC[C@H](NC(C)=O)C(=O)N[C@@H](CCC(=O)O)C(=O)N[C@@H](Cc1c[nH]cn1)C(=O)N[C@@H](Cc1ccc(O)cc1)C(=O)N[C@@H](CCCNC(=N)N)C(=O)N[C@@H](Cc1c[nH]c2ccccc12)C(=O)NCC(=O)N[C@@H](CCCCN)C(N)=O` [Ac--[Nle^4 --Tyr^7]--alpha-MSH4-11 --NH2] (Ac-[Nle]EHYRWGK-NH2) the “Relative Potency Lizard” value was 0.0090.

system: frog (Rana pipiens); format: cell-based; conditions: not given
Description: as §1

First: CSCC[C@H](NC(C)=O)C(=O)N[C@@H](CCC(=O)O)C(=O)N[C@@H](Cc1c[nH]cn1)C(=O)N[C@H](C)C(=O)N[C@@H](CCCNC(=N)N)C(=O)N[C@@H](Cc1c[nH]c2ccccc12)C(=O)NCC(=O)N[C@@H](CCCCN)C(N)=O [Ac--[D-Ala^7]--alpha-MSH4-11 --NH2] (Ac-MEH[dA]RWGK-NH2)
Second: CSCC[C@H](NC(C)=O)C(=O)N[C@@H](CCC(=O)O)C(=O)N[C@@H](Cc1c[nH]cn1)C(=O)N[C@@H](Cc1ccc([N+](=O)[O-])cc1)C(=O)N[C@@H](CCCNC(=N)N)C(=O)N[C@@H](Cc1c[nH]c2ccccc12)C(=O)NCC(=O)N[C@@H](CCCCN)C(N)=O [Ac--[Phe(pNO2)^7]--alpha-MSH4-11 --NH2] (Ac-MEH[Phe(4-NO2)]RWGK-NH2)
The “Relative Potency Frog” value of the first is higher: 0.001 for the first, 0.0003 for the second.

`CC(=O)N[C@@H](CCC(=O)O)C(=O)N[C@@H](Cc1c[nH]cn1)C(=O)N[C@H](Cc1ccccc1)C(=O)N[C@@H](CCCNC(=N)N)C(=O)N[C@@H](Cc1c[nH]c2ccccc12)C(=O)NCC(=O)N[C@@H](CCCCN)C(N)=O` [Ac--[D-Phe^7]--alpha-MSH5-11 --NH2] (Ac-EH[dF]RWGK-NH2) and `CC(=O)N[C@@H](Cc1ccc(O)cc1)C(=O)N[C@@H](CCC(=O)O)C(=O)N[C@@H](Cc1c[nH]cn1)C(=O)N[C@H](Cc1ccccc1)C(=O)N[C@@H](CCCNC(=N)N)C(=O)N[C@@H](Cc1c[nH]c2ccccc12)C(=O)NCC(=O)N[C@@H](CCCCN)C(N)=O` [Ac--[Tyr^4 --D-Phe^7]--alpha-MSH4-11 --NH2] (Ac-YEH[dF]RWGK-NH2) are the same in “Relative Potency Frog” value: 0.01 for the first, 0.01 for the second.

First: CCCC[C@H](NC(C)=O)C(=O)N[C@@H](CCC(=O)O)C(=O)N[C@@H](Cc1c[nH]cn1)C(=O)N[C@H](Cc1ccccc1)C(=O)N[C@@H](CCCNC(=N)N)C(=O)N[C@@H](Cc1ccccc1)C(=O)NCC(=O)N[C@@H](CCCCN)C(N)=O [Ac--[Nle^4 --D-Phe^7 --Phe^9]--alpha-MSH4-11 --NH2] (Ac-[Nle]EH[dF]RFGK-NH2)
Second: CCCC[C@H](NC(C)=O)C(=O)N[C@@H](CCC(=O)O)C(=O)N[C@@H](Cc1c[nH]cn1)C(=O)N[C@H](Cc1ccccc1)C(=O)N[C@@H](CCCNC(=N)N)C(=O)N[C@@H](Cc1cn(C=O)c2ccccc12)C(=O)NCC(=O)N[C@@H](CCCCN)C(N)=O [Ac--[Nle^4 --D-Phe^7 --TrpFor^9]--alpha-MSH4-11 --NH2] (Ac-[Nle]EH[dF]RW(For)GK-NH2)
The “Relative Potency Frog” value of the first is lower: 0.017 for the first, 0.033 for the second.

For `CC(=O)N[C@@H](Cc1ccc(O)cc1)C(=O)N[C@@H](CCC(=O)O)C(=O)N[C@@H](Cc1c[nH]cn1)C(=O)N[C@H](Cc1ccccc1)C(=O)N[C@@H](CCCNC(=N)N)C(=O)N[C@@H](Cc1c[nH]c2ccccc12)C(=O)NCC(N)=O` [Ac--[Tyr^4 --D-Phe^7 --alpha-MSH4-10 --NH2] (Ac-YEH[dF]RWG-NH2), the “Relative Potency Frog” value was 0.005.

same assay, conditions: in vitro skin bioassay, alpha-MSH = 1.0

In the case of Ac--[Phe--Gly^7 ]--alpha-MSH4-11 --NH2, the “Relative Potency Frog” value was 0.10.
